{"source": "paper PMC12751012", "about": "“Nanoscale Direct-to-Biology Optimization and Structural Insights into Selective S. aureus TrmD Inhibitors” (Journal of Medicinal Chemistry, 2025)", "key": {"S. aureus TrmD": {"molecular_target": "T1, S. aureus TrmD (Staphylococcus aureus, UniProt Q2FZ43)", "T1 construct": "made in house; host or cells: E. coli BL21", "T1 sequence (Q2FZ43 1-245)": "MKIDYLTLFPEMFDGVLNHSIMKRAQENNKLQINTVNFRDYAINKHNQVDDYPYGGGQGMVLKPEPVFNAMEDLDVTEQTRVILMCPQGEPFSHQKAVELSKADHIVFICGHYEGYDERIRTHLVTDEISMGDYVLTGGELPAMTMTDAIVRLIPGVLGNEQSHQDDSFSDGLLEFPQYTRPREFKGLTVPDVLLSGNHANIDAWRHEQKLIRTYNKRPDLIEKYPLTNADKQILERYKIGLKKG", "assay": "Aptamer-based MTase enzyme inhibition assay", "assay_type": "biochemical", "description": "For the determination of S. aureus TrmD IC50-values, a split aptamer assay according to Nidoieva et al. was employed. The assay was performed in 40 mM Tris HCl, 100 mM NaCl, 10 mM MgCl2, 5% Glycerol, pH 7.5. Enzyme reaction mixtures contained synthetic tRNA^LeuCAG substrate (synthetic tRNA^Leu: 5′-[…]-3′, Genscript, final concentration: 2 μM), S. aureus TrmD (final concentration: 100 nM), SAM (New England Biolabs, final concentration: 2 μM), and the test compounds in varying concentrations (3% DMSO, final volume 10 μL). Pure DMSO was used as a mock treatment reaction control. The assay was carried out in triplicate in black 384-well plates (Greiner). Enzyme reactions were quenched by the addition of 1 μL SDS (3%) after an incubation time of 60 min at room temperature."}, "[1]": {"assay": "Cell Titer Glo cell viability assay", "assay_type": "cell-based, human", "details": "human, HEK293 cells", "description": "(§1) Cell viability assays were conducted with HEK293 cells (ATCC) to investigate the compounds’ mammalian cytotoxicity. Cells were cultured according to standard protocols (DMEM, 10% FBS, 1× Penicillin/Streptomycin, 37 °C, 5% CO2). Cell viability was assessed using the Promega CellTiterGlo assay kit. Briefly, 1000 cells were seeded in white half a rea 96-well plates (Greiner) and incubated for 48 h with inhibitors from DMSO stocks (final: 0.1% DMSO) under standard cultivation conditions. Then, the cell titer reagent was added to each well according to the manufacturer’s protocols, and luminescence was measured using a Tecan Spark 10 M plate reader."}, "HEK293 cells": {"tested_on": "HEK293 cells", "assay": "Cell Titer Glo cell viability assay", "assay_type": "cell-based, human", "details": "48 h", "description": "as §1"}, "S. aureus RN4220": {"tested_on": "S. aureus RN4220", "assay": "Minimal bactericidal concentration (MBC) determination, CFU/mL", "assay_type": "cell-based, Staphylococcus aureus", "details": "24 h static incubation", "description": "To determine the minimal bactericidal concentration of the substances, bacterial cultures were prepared as in the bacterial growth inhibition assay but incubated statically at 37 °C. A serial dilution of the initial culture was made and plated on a TSB agar plate to determine the CFU/mL of the original culture. After 24 h, the cultures were diluted again and plated. Bacterial colonies were counted, and the CFU/mL was calculated. The experiment was performed in n = 3 biological replicates. Data evaluation was done using GraphPad Prism. One-way ANOVA with Dunnett’s multiple comparisons test was used for statistical analysis, and all samples were compared to the starting CFU/mL."}, "S. aureus RN4220 lysate": {"tested_on": "S. aureus RN4220 lysate", "assay": "Bacterial lysate carbamate cleavage assay (LC/MS)", "assay_type": "in vitro ADME, Staphylococcus aureus", "details": "400 μM, 16 h; for cleavage in S. aureus lysate: LC/MS; for degree of carbamate cleavage to 8h: S. aureus lysate", "description": "An overnight culture of S. aureus RN4220 was set up in TSB medium (BD Bacto Tryptic Soy Broth). The next day, a 150 mL day culture was started at an initial OD600 of 0.1. The culture was incubated at 200 rpm shaking at 37 °C. The bacteria were harvested after 3 h and 40 min (OD600 = 3.30). A 1 mL aliquot was retained to determine cell number. 150 mL of the culture was centrifuged at 4000 rpm for 10 min at 4 °C. The resulting pellet was resuspended in 10 mL of JB Lysis Buffer (0.1% Triton X-100, 20 mM Tris-HCl, 150 mM KCl, 1 mM MgCl2, 1 mM DTT, and protease inhibitors) and transferred to FastPrep tubes. Cells were mechanically lysed (2 × 30 s, 6.5 m/s) and cooled for 5 min on ice. The samples were centrifuged, and the supernatant was transferred to a new tube. Subsequently, it was centrifuged again at 5000 rpm for 30 min at 4 °C. The pellet was washed three times with 1× PBS, reducing the volume to 1 mL. Protein concentration was determined using the Pierce BCA Protein Assay Kit (Thermo Scientific). The final sample was frozen in liquid nitrogen and stored at −80 °C. 100 μL of this lysate was incubated with 8f–h (final concentration 400 μM, 2% DMSO) for 16 h at 30 °C. Afterward, 100 μL acetonitrile was added, and the samples were passed through a syringe filter. Ten μL of the samples were injected during LC/MS (Agilent 1100 system, LC/MSD trap) using an Agilent Poroshell 120 EC-C18 150 × 2.10 mm 4 μm column; mobile phase (gradient: acetonitrile/H2O, 0.1% formic acid). The LC/MS chromatograms and their corresponding mass spectra (base-peak) were analyzed using MestReNova (12.0.4) for prodrug deprotection products."}, "[2]": {"details": "aptamer-based enzyme assay, read-out: IC50 S. aureus TrmD"}}, "note": "Read-outs that look alike come from different tables or passages of the source.", "data": [{"compound": "N#Cc1cccc(Cn2cc(-c3c[nH]c4nc[nH]c(=O)c34)nn2)c1", "note": "[Compound 8b, 3-((4-(4-Oxo-4,7-dihydro-3H-pyrrolo[2,3-d]pyrimidin-5-yl)-1H-1,2,3-triazol-1-yl)methyl)benzonitrile]", "values": [{"measurement": "IC50", "setting": "S. aureus TrmD; [2]", "value": "3220 ± 1800", "unit": "nM"}, {"measurement": "CC50 at 48 h", "setting": "[1]", "value": "> 100000", "unit": "nM"}, {"measurement": "mammalian cytotoxicity HEK293", "setting": "HEK293 cells; at 100 μM", "value": "Slight cytotoxic effects"}]}, {"compound": "O=c1[nH]cnc2[nH]cc(-c3cn(CC4CCC5C(CC4)C5(F)F)nn3)c12", "note": "(centres unmarked) [Compound 8c, 5-(1-((8,8-Difluorobicyclo[5.1.0]octan-4-yl)methyl)-1H-1,2,3-triazol-4-yl)-3,7-dihydro-4H-pyrrolo[2,3-d]pyrimidin-4-one]", "values": [{"measurement": "IC50", "setting": "S. aureus TrmD; [2]", "value": "710 ± 100", "unit": "nM"}, {"measurement": "CC50 at 48 h", "setting": "[1]", "value": "> 100000", "unit": "nM"}, {"measurement": "mammalian cytotoxicity HEK293", "setting": "HEK293 cells; at 100 μM", "value": "Slight cytotoxic effects"}]}, {"compound": "O=c1[nH]cnc2[nH]cc(-c3cn(Cc4ccc5ncccc5c4)nn3)c12", "note": "[Compound 8d, 5-(1-(Quinolin-6-ylmethyl)-1H-1,2,3-triazol-4-yl)-3,7-dihydro-4H-pyrrolo[2,3-d]pyrimidin-4-one]", "values": [{"measurement": "IC50", "setting": "S. aureus TrmD; [2]", "value": "390 ± 70", "unit": "nM"}, {"measurement": "CC50 at 48 h", "setting": "[1]", "value": "> 100000", "unit": "nM"}]}, {"compound": "N[C@@H]1CCC[C@@H]1Cn1cc(-c2c[nH]c3nc[nH]c(=O)c23)nn1", "note": "[Compound 8e, 5-(1-(((1R,2R)-2-Aminocyclopentyl)methyl)-1H-1,2,3-triazol-4-yl)-3,7-dihydro-4H-pyrrolo[2,3-d]pyrimidin-4-one]", "values": [{"measurement": "IC50", "setting": "S. aureus TrmD; [2]", "value": "480 ± 60", "unit": "nM"}, {"measurement": "CC50 at 48 h", "setting": "[1]", "value": "> 100000", "unit": "nM"}, {"measurement": "mammalian cytotoxicity HEK293", "setting": "HEK293 cells; at >10 μM", "value": "Slight cytotoxic effects"}]}, {"compound": "O=C(/N=C(\\NCCn1cc(-c2c[nH]c3nc[nH]c(=O)c23)nn1)NC(=O)OCc1ccccc1)OCc1ccccc1", "note": "[Compound 8f]", "values": [{"measurement": "concentration from which growth (CFU/mL) is affected", "setting": "S. aureus RN4220", "value": 12.5, "unit": "µM"}, {"measurement": "effect on CFU/mL after 24 h (MBC determination)", "setting": "S. aureus RN4220", "value": "bacteria were not killed completely"}, {"measurement": "cleavage in S. aureus lysate", "setting": "S. aureus RN4220 lysate", "value": "readily cleaved"}, {"measurement": "degree of carbamate cleavage to 8h", "setting": "S. aureus RN4220 lysate", "value": "~30", "unit": "%"}]}, {"compound": "CC(C)(C)OC(=O)/N=C(\\NCCn1cc(-c2c[nH]c3nc[nH]c(=O)c23)nn1)NC(=O)OC(C)(C)C", "note": "[Compound 8g]", "values": [{"measurement": "effect on CFU/mL after 24 h (MBC determination)", "setting": "S. aureus RN4220", "value": "cell growth is not negatively affected"}, {"measurement": "cleavage in S. aureus lysate", "setting": "S. aureus RN4220 lysate", "value": "readily cleaved"}, {"measurement": "degree of carbamate cleavage to 8h", "setting": "S. aureus RN4220 lysate", "value": "~30", "unit": "%"}]}, {"compound": "NC(N)=NCCn1cc(-c2c[nH]c3nc[nH]c(=O)c23)nn1", "note": "[Compound 8h]", "values": [{"measurement": "IC50", "setting": "S. aureus TrmD", "value": "1160 ± 120", "unit": "nM"}, {"measurement": "cell viability / mammalian cytotoxicity HEK293", "setting": "HEK293 cells; up to 100 μM", "value": "no mammalian cytotoxicity"}]}]}
